Tests used:
[1] = test system: skin of the upper lip (philtrum); test: Cooling sensation bioassay, ointment applied to skin above the upper lip (philtrum) of test subjects; type: in vivo, human; conditions: for duration of action: applied to the skin of test subjects; for qualitative aspects of sensation (coolness and not cold, duration at least three hours): topical, philtrum method
Excerpt: A reliable place for topical application is on the upper lip, above the vermillion border of the lips, on the philtrum, lateral to the philtrum until the nasolabial folds, and on the lower nostrils. This part of the face is known to be densely innervated with cold receptors, second only to the surface of eyeball. Tingling, cool and cold sensations may be experienced and rated for intensity. This test is quite accurate for predicting the cooling activity of candidate N-arylshydroxyalkylidene-cCarboxamide drugs, but most importantly, it also measures the duration of drug action on the sensory receptors. The duration of action is not measured in a receptor assay and is difficult to quantify on the tongue because of the dynamic fluid conditions in the oral cavity and the presence of taste factors that affect thermosensation.
For bioassay of […] on the skin, CPS-195 was stirred and dissolved in warm liquid Aquaphor® ointment to yield ointment concentrations of 0.25, 0.5, 1, and 2% wt/vol. After cooling, 50 to 80 mg of the solid ointment was placed on the tip of a plastic stick and applied to the skin above the upper lip, on the philtrum, and lateral to the philtrum up to the nasolabial folds, of test subjects and the onset and duration of cooling sensations recorded. Each of the compounds produce cooling on the skin of the upper lip with duration of action of more than 1 hour.
The intensity of the subjective skin sensation is rated as 0, 1, 2 or 3 with 0 as no change, 1 as slight coolness, cold, or tingling, 2 as clear cut signal of coolness, cold, or tingling, and 3 as robust cooling or cold. The interval for recording sensations is at 5 minute intervals, until two successive zeroes are obtained. The results are averaged values of 4 to 6 separate trials in the same individual. The data were plotted using SigmaPlot (Systat Software, Point Richmond Calif.) and a smoothing function with a negative exponential was used for analysis and statistical fit of the results.
The onset of drug action was taken as the time to reach 2 units of coolness intensity, and offset of drug action was the time when coolness intensity drops below 1.5, after previously surpassing 2 units. The duration of cooling action was defined as the offset time minus the onset time, which in this case averaged 2 minutes. The quality of the sensation was also noted, such as refreshing coolness, cold, or if the sensation was accompanied by irritation (stinging or burning). The quality of the sensation was not rated for intensity.

oral cavity = test: Cooling sensation after placement on the dorsal surface of the tongue; type: in vivo, human
Description: The onset of cooling was 3 to 5 minutes, but once the effect was established, the entire oral cavity and pharyngeal surfaces (oro-, laryngo- and naso-pharynx) felt cool.
CPS-195 was formulated as a 3% wt/wt tablet in Ludipress®, a rapidly disintegrating direct compression excipient made by BASF Corp. The tablet size was 60 mg so each unit contained 1.8 mg of CPS-195. […] For example, applied onto the mucous membranes of the oral cavity it can soothe the discomforts of pharyngitis/laryngitis, oral mucositis, oral ulcers, and idiopathic facial pain. In the pharynx and upper airways, CPS-195 may be used to reduce or to treat cough, asthma, and chronic obstructive pulmonary disease. On the skin, CPS-195 can be used to treat the discomfort of severe acne, eczema, diabetic ulcers, and the like.

TRP-M8 receptor = target: T1, TRP-M8 receptor (Homo sapiens, UniProt Q7Z2W7); test: TRP-M8 receptor assay; type: cell-based
T1 construct: expressed in transfected cells
Excerpt: Pain was defined by Sir Charles Sherrington as “the psychic adjunct of an imperative protective reflex”. Psychic events such as cooling, irritation, itch, and pain cannot be expressed by animals (animals cannot say “ouch” or that “it itches”) so the sensory effects of chemicals must be indirectly inferred. Receptor assays, based on cells transfected with the gene for TRP-M8 or TRP-A1, may be used as a model of sensory processes. […] But, as noted below, these assays give no information on how long and for what quality of sensations is occurring on human subjects. The best information on the pharmacological properties of these chemicals must therefore be derived from human experiment.
The sensations are more cold than cool, and have the sting and harshness of high concentrations of menthol. […] CPS-112 was therefore a disappointment in spite of its high potency on the receptor assay.

[2] = 2 mg on the dorsal surface of the tongue

T1 sequence (Q7Z2W7 whole entry): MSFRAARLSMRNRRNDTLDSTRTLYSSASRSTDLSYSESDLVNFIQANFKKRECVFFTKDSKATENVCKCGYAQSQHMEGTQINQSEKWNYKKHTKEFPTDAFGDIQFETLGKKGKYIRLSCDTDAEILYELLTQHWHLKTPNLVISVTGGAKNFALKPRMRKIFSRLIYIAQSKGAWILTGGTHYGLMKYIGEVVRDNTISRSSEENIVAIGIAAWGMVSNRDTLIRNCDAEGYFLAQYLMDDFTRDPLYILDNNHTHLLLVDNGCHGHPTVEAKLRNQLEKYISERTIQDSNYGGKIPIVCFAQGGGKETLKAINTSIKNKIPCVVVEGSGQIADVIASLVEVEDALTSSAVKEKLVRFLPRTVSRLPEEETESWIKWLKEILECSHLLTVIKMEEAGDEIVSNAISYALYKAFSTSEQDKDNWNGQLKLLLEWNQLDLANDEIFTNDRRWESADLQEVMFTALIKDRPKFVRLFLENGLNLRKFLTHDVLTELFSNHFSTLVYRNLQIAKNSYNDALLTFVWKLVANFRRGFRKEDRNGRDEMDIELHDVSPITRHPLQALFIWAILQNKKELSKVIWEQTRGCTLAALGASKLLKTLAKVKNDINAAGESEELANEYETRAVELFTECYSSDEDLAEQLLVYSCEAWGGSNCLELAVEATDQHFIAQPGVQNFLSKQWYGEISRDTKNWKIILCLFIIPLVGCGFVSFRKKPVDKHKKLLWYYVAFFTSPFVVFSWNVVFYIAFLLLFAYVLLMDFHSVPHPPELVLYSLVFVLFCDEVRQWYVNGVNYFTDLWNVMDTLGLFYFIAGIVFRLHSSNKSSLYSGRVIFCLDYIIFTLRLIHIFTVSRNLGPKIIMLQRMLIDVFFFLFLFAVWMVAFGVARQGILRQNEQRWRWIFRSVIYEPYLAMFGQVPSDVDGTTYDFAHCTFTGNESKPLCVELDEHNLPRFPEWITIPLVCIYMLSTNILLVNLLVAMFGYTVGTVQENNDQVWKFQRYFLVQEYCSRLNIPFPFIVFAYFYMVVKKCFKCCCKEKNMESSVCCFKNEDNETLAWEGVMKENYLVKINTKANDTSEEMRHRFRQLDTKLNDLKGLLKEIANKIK

In the case of `CC(C)[C@@H]1CC[C@@H](C)C[C@H]1C(=O)N(C)CC(O)c1cccc(O)c1` (stereo in doubt) [CPS-195, 2-isopropyl-5-methyl-cyclohexanecarboxylic acid (2′-hydroxy-2′-[3″-hydroxy-phenyl]-ethyl)-N-methyl-amide], the “duration of action (coolness and cold on skin of the upper lip)” value ([1]; 0.25% wt/vol in Aquaphor ointment) is reported as 1.2 h, the “duration of action (coolness and cold on skin of the upper lip)” value ([1]; 0.5% wt/vol in Aquaphor ointment) is reported as 1.8 h and the “duration of action (coolness and cold on skin of the upper lip)” value ([1]; 1% wt/vol in Aquaphor ointment) is reported as 2.4 h. The “duration of action (coolness and cold on skin of the upper lip)” value ([1]; 2% wt/vol in Aquaphor ointment) was 5.2 h, the “potency compared to CPS-179, CPS-190 and CPS-192” value ([1]; skin of the upper lip) was “most potent” and the “duration of cooling sensation within the oral cavity” value (oral cavity; [2]) was “over 4 hours”. The “quality of cool/cold sensations” value (oral cavity; [2]) was “pleasant and not aversive” and the duration of action (oral cavity; single dose of 2 mg applied to the surface of the tongue or on to the philtrum) was roughly 4 h.

`CCOC(=O)CNC(=O)[C@@H]1C[C@H](C)CC[C@H]1C(C)C` [WS-5, reference compound] was tested, and the duration of action [1] was “less than one”.

With `COc1ccc(NC(=O)[C@@H]2C[C@H](C)CC[C@H]2C(C)C)cc1` [WS-12, reference compound] the “active concentrations on the TRP-M8 receptor assay” value (TRP-M8 receptor) was “sub-micromolar”, the “time at which action is dissipated” value ([1]; 2% preparation) was “one” and the “time at which duration of action peaks” value ([1]; 2% preparation) was 30 min. For the same compound, the “sensation elicited on the philtrum and its environs” value ([1]; applied at 1 to 2%) was “strong cold sensations” and the “qualitative aspects of sensation (coolness and not cold, duration at least three hours)” value [1] was “sensations of cold, but of brief duration”.

In the case of `CC1CCC(C(C)C)C(O)C1` (single isomer, unassigned; (-)) [(−)-menthol, reference compound], the duration of action [1] is reported as “less than one”.

In the case of `CC(C)[C@@H]1CC[C@@H](C)C[C@H]1C(=O)Nc1ccc(S(=O)(=O)Nc2ncccn2)cc1` [CPS-125], the “qualitative aspects of sensation (coolness and not cold, duration at least three hours)” value [1] is reported as “met”.

Reference: patent US20100041757A1, “N-ARYL-HYDROXYALKYLIDENE-CARBOXAMIDE COMPOUNDS AND THEIR USE” (priority 2006, published 2010)
